Laboratory results: PubChem BioAssay (NCI)
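48-hour exposure; five concentrations; linearly interpolated endpoints. TGI: total growth inhibition.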 Non-standard residues stand in square brackets, D forms with d. Residues, ends and D or L forms follow the SMILES beside them. ξ: configuration not given here. Pen = CC(C)(S)[C@H](N)C(=O)O; ξL = CC(C)CC(N)C(=O)O

Assays:
Experiment in all cases: NCI tumour cell line growth inhibition, 48 h
DLD-1 colon = tested on: DLD-1 colon
HOP-18 NSCLC = tested on: HOP-18 NSCLC
SNB-78 CNS = tested on: SNB-78 CNS
M19-MEL melanoma = tested on: M19-MEL melanoma
SN12K1 renal = tested on: SN12K1 renal
NCI-H226 lung = tested on: NCI-H226 lung
NCI-H23 lung = tested on: NCI-H23 lung
KM20L2 colon = tested on: KM20L2 colon
DMS 273 small cell lung = tested on: DMS 273 small cell lung
XF 498 CNS = tested on: XF 498 CNS
UACC-257 melanoma = tested on: UACC-257 melanoma
P388 leukemia = tested on: P388 leukemia
DMS 114 small cell lung = tested on: DMS 114 small cell lung
HOP-92 NSCLC = tested on: HOP-92 NSCLC
P388/ADR leukemia = tested on: P388/ADR leukemia
SN12C renal = tested on: SN12C renal
786-0 renal = tested on: 786-0 renal
SK-MEL-5 melanoma = tested on: SK-MEL-5 melanoma
OVCAR-8 ovarian = tested on: OVCAR-8 ovarian
EKVX NSCLC = tested on: EKVX NSCLC
UO-31 renal = tested on: UO-31 renal
HCT-15 colon = tested on: HCT-15 colon
HCT-116 colon = tested on: HCT-116 colon
NCI-H460 lung = tested on: NCI-H460 lung
MALME-3M melanoma = tested on: MALME-3M melanoma
UACC-62 melanoma = tested on: UACC-62 melanoma
SNB-75 CNS = tested on: SNB-75 CNS
SW-620 colon = tested on: SW-620 colon
MOLT-4 leukemia = tested on: MOLT-4 leukemia
U251 CNS = tested on: U251 CNS
HL-60(TB) leukemia = tested on: HL-60(TB) leukemia
SF-539 CNS = tested on: SF-539 CNS
SK-OV-3 ovarian = tested on: SK-OV-3 ovarian
RPMI-8226 leukemia = tested on: RPMI-8226 leukemia
SF-268 CNS = tested on: SF-268 CNS
TK-10 renal = tested on: TK-10 renal
ACHN renal = tested on: ACHN renal
CCRF-CEM leukemia = tested on: CCRF-CEM leukemia
A498 renal = tested on: A498 renal
HCC-2998 colon = tested on: HCC-2998 colon
HT29 colon = tested on: HT29 colon
OVCAR-3 ovarian = tested on: OVCAR-3 ovarian
SK-MEL-28 melanoma = tested on: SK-MEL-28 melanoma
LOX IMVI melanoma = tested on: LOX IMVI melanoma
K-562 leukemia = tested on: K-562 leukemia
A549 NSCLC = tested on: A549 NSCLC
SNB-19 CNS = tested on: SNB-19 CNS
COLO 205 colon = tested on: COLO 205 colon
KM12 colon = tested on: KM12 colon
RXF 393 renal = tested on: RXF 393 renal
NCI-H522 lung = tested on: NCI-H522 lung
OVCAR-4 ovarian = tested on: OVCAR-4 ovarian
M14 melanoma = tested on: M14 melanoma
SF-295 CNS = tested on: SF-295 CNS
RXF-631 renal = tested on: RXF-631 renal
IGROV1 ovarian = tested on: IGROV1 ovarian
HOP-62 NSCLC = tested on: HOP-62 NSCLC
SK-MEL-2 melanoma = tested on: SK-MEL-2 melanoma
CAKI-1 renal = tested on: CAKI-1 renal
LXFL 529 NSCLC = tested on: LXFL 529 NSCLC
OVCAR-5 ovarian = tested on: OVCAR-5 ovarian

CSCC[C@H](NC(=O)C(CC(C)C)NC(=O)[C@H](Cc1c[nH]cn1)NC(=O)CNC(=O)[C@@H](NC(=O)[C@@H](C)NC(=O)[C@H](Cc1c[nH]c2ccccc12)NC(=O)[C@H](CCC(N)=O)NC(=O)[C@@H](N)CC(N)=O)C(C)(C)SC)C(N)=O (stereo partly specified) (H-NQW[dA][Pen](Me)GH[ξL]M-NH2) was tested, and the TGI (DLD-1 colon) was over 100 µM, the TGI (HOP-18 NSCLC) was over 100 µM and the TGI (SNB-78 CNS) was over 100 µM. For the same compound, the TGI (M19-MEL melanoma) was over 100 µM, the TGI (SN12K1 renal) was over 100 µM and the TGI (NCI-H226 lung) was over 100 µM. The TGI (NCI-H23 lung) was over 100 µM, the TGI (KM20L2 colon) was over 100 µM and the TGI (DMS 273 small cell lung) was over 100 µM. It also gave a TGI (XF 498 CNS) of over 100 µM, a TGI (UACC-257 melanoma) of over 100 µM and a TGI (P388 leukemia) of over 100 µM. The TGI (DMS 114 small cell lung) was over 100 µM, the TGI (HOP-92 NSCLC) was over 100 µM and the TGI (P388/ADR leukemia) was over 100 µM.

For O=S(=O)(c1ccccc1)N1CCC1c1ccccc1 (stereo unspecified), the TGI (SN12C renal) was over 100 µM, the TGI (786-0 renal) was over 100 µM and the TGI (SK-MEL-5 melanoma) was over 100 µM. For the same compound, the TGI (OVCAR-8 ovarian) was over 100 µM, the TGI (HOP-18 NSCLC) was over 100 µM and the TGI (EKVX NSCLC) was over 100 µM. For the same compound, the TGI (UO-31 renal) was over 100 µM, the TGI (SNB-78 CNS) was over 100 µM and the TGI (M19-MEL melanoma) was over 100 µM. It also gave a TGI (HCT-15 colon) of over 100 µM, a TGI (HCT-116 colon) of over 100 µM and a TGI (NCI-H226 lung) of over 100 µM. For the same compound, the TGI (NCI-H460 lung) was over 100 µM, the TGI (NCI-H23 lung) was over 100 µM and the TGI (KM20L2 colon) was over 100 µM. For the same compound, the TGI (DMS 273 small cell lung) was over 100 µM, the TGI (MALME-3M melanoma) was over 100 µM and the TGI (UACC-62 melanoma) was over 100 µM. The TGI (SNB-75 CNS) was over 100 µM, the TGI (SW-620 colon) was over 100 µM and the TGI (MOLT-4 leukemia) was over 100 µM. For the same compound, the TGI (U251 CNS) was over 100 µM, the TGI (HL-60(TB) leukemia) was 85.1 µM and the TGI (SF-539 CNS) was over 100 µM. For the same compound, the TGI (XF 498 CNS) was over 100 µM, the TGI (SK-OV-3 ovarian) was over 100 µM and the TGI (RPMI-8226 leukemia) was over 100 µM. The TGI (SF-268 CNS) was over 100 µM, the TGI (UACC-257 melanoma) was over 100 µM and the TGI (TK-10 renal) was over 100 µM. For the same compound, the TGI (ACHN renal) was over 100 µM, the TGI (CCRF-CEM leukemia) was over 100 µM and the TGI (A498 renal) was over 100 µM. It also gave a TGI (HCC-2998 colon) of over 100 µM, a TGI (HT29 colon) of over 100 µM and a TGI (OVCAR-3 ovarian) of over 100 µM. For the same compound, the TGI (SK-MEL-28 melanoma) was over 100 µM, the TGI (LOX IMVI melanoma) was over 100 µM and the TGI (K-562 leukemia) was over 100 µM. For the same compound, the TGI (A549 NSCLC) was over 100 µM, the TGI (DMS 114 small cell lung) was over 100 µM and the TGI (SNB-19 CNS) was over 100 µM. For the same compound, the TGI (COLO 205 colon) was over 100 µM, the TGI (KM12 colon) was over 100 µM and the TGI (RXF 393 renal) was over 100 µM. For the same compound, the TGI (NCI-H522 lung) was over 100 µM, the TGI (HOP-92 NSCLC) was over 100 µM and the TGI (OVCAR-4 ovarian) was over 100 µM. For the same compound, the TGI (M14 melanoma) was over 100 µM, the TGI (SF-295 CNS) was over 100 µM and the TGI (RXF-631 renal) was over 100 µM. The TGI (IGROV1 ovarian) was over 100 µM, the TGI (HOP-62 NSCLC) was over 100 µM and the TGI (SK-MEL-2 melanoma) was over 100 µM.

CC(C)N1CCOC(c2ccc(O)c(O)c2)C1 (stereo unspecified) gave a TGI (SN12C renal) of over 100 µM, a TGI (786-0 renal) of over 100 µM and a TGI (SK-MEL-5 melanoma) of over 100 µM. For the same compound, the TGI (DLD-1 colon) was over 100 µM, the TGI (OVCAR-8 ovarian) was over 100 µM and the TGI (EKVX NSCLC) was over 100 µM. For the same compound, the TGI (UO-31 renal) was over 100 µM, the TGI (SNB-78 CNS) was over 100 µM and the TGI (M19-MEL melanoma) was over 100 µM. The TGI (CAKI-1 renal) was over 100 µM, the TGI (HCT-15 colon) was over 100 µM and the TGI (NCI-H460 lung) was over 100 µM. It also gave a TGI (NCI-H23 lung) of over 100 µM, a TGI (KM20L2 colon) of over 100 µM and a TGI (DMS 273 small cell lung) of over 100 µM. It also gave a TGI (MALME-3M melanoma) of over 100 µM, a TGI (UACC-62 melanoma) of over 100 µM and a TGI (SNB-75 CNS) of over 100 µM. For the same compound, the TGI (SW-620 colon) was over 100 µM, the TGI (LXFL 529 NSCLC) was over 100 µM and the TGI (MOLT-4 leukemia) was over 100 µM. It also gave a TGI (HL-60(TB) leukemia) of over 100 µM, a TGI (XF 498 CNS) of over 100 µM and a TGI (SK-OV-3 ovarian) of over 100 µM. It also gave a TGI (RPMI-8226 leukemia) of over 100 µM, a TGI (SF-268 CNS) of over 100 µM and a TGI (UACC-257 melanoma) of over 100 µM. It also gave a TGI (TK-10 renal) of over 100 µM, a TGI (ACHN renal) of over 100 µM and a TGI (OVCAR-5 ovarian) of over 100 µM. For the same compound, the TGI (CCRF-CEM leukemia) was over 100 µM, the TGI (HCC-2998 colon) was over 100 µM and the TGI (HT29 colon) was over 100 µM. The TGI (OVCAR-3 ovarian) was over 100 µM, the TGI (SK-MEL-28 melanoma) was over 100 µM and the TGI (LOX IMVI melanoma) was over 100 µM. For the same compound, the TGI (K-562 leukemia) was over 100 µM, the TGI (A549 NSCLC) was over 100 µM and the TGI (DMS 114 small cell lung) was over 100 µM. The TGI (SNB-19 CNS) was over 100 µM, the TGI (COLO 205 colon) was over 100 µM and the TGI (KM12 colon) was over 100 µM. For the same compound, the TGI (RXF 393 renal) was over 100 µM, the TGI (NCI-H522 lung) was over 100 µM and the TGI (HOP-92 NSCLC) was over 100 µM. The TGI (OVCAR-4 ovarian) was over 100 µM, the TGI (M14 melanoma) was over 100 µM and the TGI (SF-295 CNS) was over 100 µM. It also gave a TGI (RXF-631 renal) of over 100 µM, a TGI (IGROV1 ovarian) of over 100 µM and a TGI (HOP-62 NSCLC) of over 100 µM. The TGI (SK-MEL-2 melanoma) was over 100 µM.
